Assay results as given in ChEMBL document CHEMBL5338776, “Design and Characterization of Squaramic Acid-Based Prostate-Specific Membrane Antigen Inhibitors for Prostate Cancer” (J Med Chem, 2023).
pKi: −log10 of the molar value.

Legend:
[1] = target: T1, Glutamate carboxypeptidase 2 (Homo sapiens, UniProt Q04609); assay: Binding affinity to human recombinant PSMA (unknown origin) assessed as inhibition constant incubated for 60 mins in presence of NAAG
[2] = target: T1, Glutamate carboxypeptidase 2; assay: Binding affinity to PSMA (unknown origin) assessed as inhibition constant
[3] = Drug uptake in 22Rv1 tumor bearing mouse assessed as tumor to normal tissue ratio measured at 0.85 mg/kg, iv after 24 hrs by NIR-II imaging analysis; type: ADME, organism-based; conditions: in vivo
[4] = Drug uptake in 22Rv1 tumor bearing mouse assessed as fluorescence in brain measured at 0.85 mg/kg, iv after 24 hrs by NIR-II imaging analysis; type: ADME, organism-based; conditions: in vivo
[5] = Drug uptake in 22Rv1 tumor bearing mouse assessed as fluorescence in lung measured at 0.85 mg/kg, iv after 24 hrs by NIR-II imaging analysis; type: ADME, organism-based; conditions: in vivo
[6] = Drug uptake in 22Rv1 tumor bearing mouse measured at 0.85 mg/kg, iv after 24 hrs in presence of (2S)-2-[[(1S)-1-Carboxy-5-[(4-iodobenzoyl)amino]pentyl]carbamoylamino]pentanedioic acid by NIR-II imaging analysis; type: ADME, organism-based, Neoplasm; conditions: in vivo
[7] = Drug uptake in 22Rv1 tumor bearing mouse assessed as fluorescence in pancreas measured at 0.85 mg/kg, iv after 24 hrs by NIR-II imaging analysis; type: ADME, organism-based; conditions: in vivo
[8] = Drug uptake in 22Rv1 tumor bearing mouse assessed as fluorescence in stomach measured at 0.85 mg/kg, iv after 24 hrs by NIR-II imaging analysis; type: ADME, organism-based; conditions: in vivo
[9] = Drug uptake in 22Rv1 tumor bearing mouse assessed as fluorescence in tumor measured at 0.85 mg/kg, iv after 24 hrs by NIR-II imaging analysis; type: ADME, organism-based, Neoplasm; conditions: in vivo
[10] = Drug uptake in 22Rv1 tumor bearing mouse assessed as fluorescence in kidney measured at 0.85 mg/kg, iv after 24 hrs by NIR-II imaging analysis; type: ADME, organism-based; conditions: in vivo
[11] = Drug uptake in 22Rv1 tumor bearing mouse assessed as fluorescence in spleen measured at 0.85 mg/kg, iv after 24 hrs by NIR-II imaging analysis; type: ADME, organism-based; conditions: in vivo
[12] = Drug uptake in 22Rv1 tumor bearing mouse assessed as fluorescence in liver measured at 0.85 mg/kg, iv after 24 hrs by NIR-II imaging analysis; type: ADME, organism-based; conditions: in vivo
[13] = Drug uptake in 22Rv1 tumor bearing mouse assessed as fluorescence in heart measured at 0.85 mg/kg, iv after 24 hrs by NIR-II imaging analysis; type: ADME, organism-based; conditions: in vivo
[14] = Drug uptake in 22Rv1 tumor bearing mouse assessed as tumor to liver ratio measured at 0.85 mg/kg, iv after 24 hrs by NIR-II imaging analysis; type: ADME, organism-based; conditions: in vivo
[15] = Drug uptake in 22Rv1 tumor bearing mouse assessed as fluorescence in intestine measured at 0.85 mg/kg, iv after 24 hrs by NIR-II imaging analysis; type: ADME, organism-based; conditions: in vivo
[16] = Drug uptake in 22Rv1 tumor bearing mouse assessed as fluorescence in muscle measured at 0.85 mg/kg, iv after 24 hrs by NIR-II imaging analysis; type: ADME, organism-based, Muscle tissue; conditions: in vivo

T1 sequence (Q04609 whole entry): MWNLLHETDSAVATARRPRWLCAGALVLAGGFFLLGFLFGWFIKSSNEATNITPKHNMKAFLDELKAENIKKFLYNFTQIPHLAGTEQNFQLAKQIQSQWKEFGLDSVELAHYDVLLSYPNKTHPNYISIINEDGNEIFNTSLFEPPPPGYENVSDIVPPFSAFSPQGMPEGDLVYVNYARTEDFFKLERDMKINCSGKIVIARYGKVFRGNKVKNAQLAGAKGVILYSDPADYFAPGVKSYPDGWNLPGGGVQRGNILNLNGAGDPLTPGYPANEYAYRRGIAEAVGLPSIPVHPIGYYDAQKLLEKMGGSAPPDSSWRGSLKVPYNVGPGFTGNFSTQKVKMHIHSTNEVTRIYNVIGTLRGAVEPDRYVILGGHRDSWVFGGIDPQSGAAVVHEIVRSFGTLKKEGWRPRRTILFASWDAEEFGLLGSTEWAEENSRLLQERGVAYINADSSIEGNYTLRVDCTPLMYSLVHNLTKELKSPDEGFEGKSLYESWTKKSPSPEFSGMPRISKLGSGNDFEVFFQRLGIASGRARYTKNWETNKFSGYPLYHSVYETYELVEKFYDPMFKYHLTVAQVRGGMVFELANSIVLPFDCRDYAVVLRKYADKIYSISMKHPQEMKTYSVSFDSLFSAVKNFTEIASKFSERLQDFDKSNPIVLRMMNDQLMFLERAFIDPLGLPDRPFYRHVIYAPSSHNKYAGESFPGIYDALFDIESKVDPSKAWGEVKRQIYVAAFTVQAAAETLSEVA

Question: With `O=C(O)CC[C@H](NC(=O)N[C@@H](CCCNC(=O)c1ccc(F)cc1)C(=O)O)C(=O)O` as the molecule, how does the pKi [1] read?
Answer: 9.07

Question: With `O=C(N[C@@H](CCCCNC(=O)c1ccc(F)cc1)C(=O)O)N[C@@H](CNc1c(O)c(=O)c1=O)C(=O)O` as the molecule, how does the pKi [1] read?
Answer: 9.05

Question: With `CC1(C)C(/C=C2/C(=O)C(/C=C3\N(CCCCCC(=O)NCCCC[C@H](NC(=O)N[C@@H](CCC(=O)O)C(=O)O)C(=O)O)c4ccccc4C3(C)C)=C2[O-])=[N+](CCCCCC(=O)NCCCC[C@H](NC(=O)N[C@@H](CCC(=O)O)C(=O)O)C(=O)O)c2ccccc21` as the molecule, how does the pKi [2] read?
Answer: 9.13

Question: Which Ratio [3] does the source give for `CN(CCC(=O)NCCCC[C@H](NC(=O)N[C@@H](CCC(=O)O)C(=O)O)C(=O)O)c1ccc(-c2c3c(c(-c4ccc(N(C)CCC(=O)NCCCC[C@H](NC(=O)N[C@@H](CCC(=O)O)C(=O)O)C(=O)O)cc4)c4nsnc24)N=S=N3)cc1` here?
Answer: 6.66

Question: With `O=C(O)CC[C@H](Nc1c(N[C@@H](CCCCNC(=O)c2cc(I)cc(C(=O)NCCCC[C@H](Nc3c(N[C@@H](CCC(=O)O)C(=O)O)c(=O)c3=O)C(=O)O)c2)C(=O)O)c(=O)c1=O)C(=O)O` as the molecule, how does the pKi [1] read?
Answer: 6.97

Question: With `O=C(O)CC(=O)NC[C@H](NC(=O)N[C@@H](CCCCNC(=O)c1cc(I)cc(C(=O)NCCCC[C@H](NC(=O)N[C@@H](CNC(=O)CC(=O)O)C(=O)O)C(=O)O)c1)C(=O)O)C(=O)O` as the molecule, how does the pKi [1] read?
Answer: 7.47

Question: With `CN(CCC(=O)NCCCC[C@H](NC(=O)N[C@@H](CNc1c(O)c(=O)c1=O)C(=O)O)C(=O)O)c1ccc(-c2c3c(c(-c4ccc(N(C)CCC(=O)NCCC[C@H](NC(=O)N[C@@H](CNc5c(O)c(=O)c5=O)C(=O)O)C(=O)O)cc4)c4nsnc24)N=S=N3)cc1` as the molecule, how does the Drug uptake [4] read?
Answer: Not Active

Question: And the pKi [1]?
Answer: 8.97

Question: And the Ratio [3]?
Answer: 4.79

Question: What about the Drug uptake [5] of the same molecule?
Answer: Not Active

Question: What about the Drug uptake [6] of the same molecule?
Answer: Not Active

Question: What about the Drug uptake [7] of the same molecule?
Answer: Not Active

Question: What about the Drug uptake [8] of the same molecule?
Answer: Not Active

Question: What about the Drug uptake [9] of the same molecule?
Answer: Active

Question: And the Drug uptake [10]?
Answer: Active

Question: What about the Drug uptake [11] of the same molecule?
Answer: Not Active

Question: What about the Drug uptake [12] of the same molecule?
Answer: Active

Question: And the Drug uptake [13]?
Answer: Not Active

Question: And the Ratio [14]?
Answer: 5.39

Question: And the Drug uptake [15]?
Answer: Not Active

Question: And the Drug uptake [16]?
Answer: Not Active

Question: With `O=C(N[C@@H](CCCCNC(=O)c1cc(I)cc(C(=O)NCCCC[C@H](NC(=O)N[C@@H](CNc2c(O)c(=O)c2=O)C(=O)O)C(=O)O)c1)C(=O)O)N[C@@H](CNc1c(O)c(=O)c1=O)C(=O)O` as the molecule, how does the pKi [1] read?
Answer: 9.40

Question: With `O=C(O)CC(=O)NC[C@H](NC(=O)N[C@@H](CCCCNC(=O)c1ccc(I)cc1)C(=O)O)C(=O)O` as the molecule, how does the pKi [1] read?
Answer: 6.66

Question: With `O=C(NC(CCCCNC(=O)c1ccc(I)cc1)C(=O)O)N[C@@H](CNc1c(O)c(=O)c1=O)C(=O)O` (stereo not given in full) as the molecule, how does the pKi [1] read?
Answer: 8.87

Question: With `O=C(N[C@@H](CCCCNC(=O)c1cc(F)cc(C(=O)NCCCC[C@H](NC(=O)N[C@@H](CNc2c(O)c(=O)c2=O)C(=O)O)C(=O)O)c1)C(=O)O)N[C@@H](CNc1c(O)c(=O)c1=O)C(=O)O` as the molecule, how does the pKi [1] read?
Answer: 9.39
